Assay results: patent US20240116946A1 (Gilead Sciences, Inc., priority 2022, published 2024)
pEC50, pIC50: −log10 of the molar value. Read-outs that look alike come from different tables or passages of the source.

Columns and labels:
[1] = biological target: recombinant SARS-CoV-2 Main protease (Mpro) (Severe acute respiratory syndrome coronavirus 2 (2019-nCoV) (SARS-CoV-2), UniProt P0DTD1); assay: Cov Mpro Biochemical IC50 Assay; settings: recombinant SARS-CoV-2 Mpro, fluorogenic peptide substrate; read-out: MPro IC50
SARS-CoV-2-NLuc = assay: microbe, parasite or virus in culture; type: cell-based, SARS Coronavirus 2
[2] = Severe acute respiratory syndrome coronavirus, 48 h, read-out: MPro EC50
[3] = Severe acute respiratory syndrome coronavirus, 48 h; read-out: MPro EC50

| SMILES | pIC50 [1] | pEC50 (SARS-CoV-2-NLuc; [2]) | pEC50 (SARS-CoV-2-NLuc; [3]) | pEC50 (SARS-CoV-2-NLuc; read-out: MPro EC50) |
| --- | --- | --- | --- | --- |
| NC(=O)c1ccccc1-c1ccc2c(=O)n(-c3cncc4ccccc34)c(=O)[nH]c2c1 [Example 66, 2-(3-(isoquinolin-4-yl)-2,4-dioxo-1,2,3,4-tetrahydroquinazolin-7-yl)benzamide] | 5.70 | < 4.30 | – | – |
| N#Cc1ccccc1-c1cc2[nH]c(=O)n(-c3cncc4ccccc34)c(=O)c2cc1F [Example 67] | 7.05 | 6.67 | – | – |
| NC(=O)c1ccccc1-c1cc2[nH]c(=O)n(-c3cncc4ccccc34)c(=O)c2cc1F [Example 68] | 6.00 | 4.36 | – | – |
| N#Cc1ccccc1-c1cnc2c(=O)n(-c3cncc4ccccc34)c(=O)[nH]c2c1 [Example 69] | 7.27 | 5.38 | – | – |
| NC(=O)c1ccccc1-c1cnc2c(=O)n(-c3cncc4ccccc34)c(=O)[nH]c2c1 [Example 70] | 5.57 | < 4.30 | – | – |
| COc1cccc(C#N)c1-c1ccc2c(=O)n(-c3cncc4ccccc34)c(=O)[nH]c2c1 [Example 71] | 7.12 | 6.85 | – | – |
| COc1cccc(C(N)=O)c1-c1ccc2c(=O)n(-c3cncc4ccccc34)c(=O)[nH]c2c1 [Example 72] | 5.09 | < 4.30 | – | – |
| O=c1[nH]c2cc(-c3ccccc3Cl)ccc2c(=O)n1-c1cncc2ccccc12 [Example 73, 7-(2-chlorophenyl)-3-(isoquinolin-4-yl)quinazoline-2,4(1H,3H)-dione] | 6.80 | 6.58 | – | – |
| O=c1[nH]c2cc(-c3ccccc3-c3ccccc3Cl)ccc2c(=O)n1-c1cncc2ccccc12 [Example 74, 7-(2′-chloro-[1,1′-biphenyl]-2-yl)-3-(isoquinolin-4-yl)quinazoline-2,4(1H,3H)-dione] | 6.33 | 6.15 | – | – |
| Cc1c(-c2ccccc2Cl)sc2[nH]c(=O)n(-c3cncc4ccccc34)c(=O)c12 [Example 75] | 6.07 | 5.03 | – | – |
| Cc1c(-c2ccccc2Cl)sc2c(=O)n(-c3cncc4ccccc34)c(=O)[nH]c12 [Example 76] | 5.56 | 5.13 | – | – |
| COc1cc2c(=O)n(-c3cncc4ccccc34)c(=O)[nH]c2cc1-c1c(Cl)cccc1OC [Example 77] | 6.88 | – | 6.94 | – |
| O=c1[nH]c2sc(-c3ccccc3Cl)nc2c(=O)n1-c1cncc2ccccc12 [Example 78] | 6.39 | 5.02 | – | – |
| O=c1[nH]c2c(Cl)c(-c3ccccc3Cl)ccc2c(=O)n1-c1cncc2ccccc12 [Example 79] | 4.85 | 4.92 | – | – |
| O=c1[nH]c2cc(-c3ccccc3Cl)c(OC3CC3)cc2c(=O)n1-c1cncc2ccccc12 [Example 80] | 6.11 | 6.64 | – | – |
| Cc1cc2c(=O)n(-c3cncc4ccccc34)c(=O)[nH]c2cc1-c1ccccc1Cl [Example 81] | 6.64 | 6.73 | – | – |
| O=c1[nH]c2c(F)c(-c3ccccc3Cl)ccc2c(=O)n1-c1cncc2ccccc12 [Example 82] | 5.86 | 5.54 | – | – |
| COc1cc2c(=O)n(-c3cncc4ccccc34)c(=O)[nH]c2cc1-c1ccccc1Cl [Example 83] | 6.96 | 6.91 | – | – |
| O=c1[nH]c2cc(-c3ccsc3Cl)ccc2c(=O)n1-c1cncc2ccccc12 [Example 84] | 6.22 | 5.99 | – | – |
| O=c1[nH]c2cc(-c3ccsc3-c3ccsc3Cl)ccc2c(=O)n1-c1cncc2ccccc12 [Example 85] | 5.83 | 6.12 | – | – |
| O=c1[nH]c2cc(-c3c(Cl)cccc3OCc3cscn3)ccc2c(=O)n1-c1cncc2ccccc12 [Example 86, 7-[2-chloro-6-(thiazol-4-ylmethoxy)phenyl]-3-(4-isoquinolyl)-1H-quinazoline-2,4-dione] | 6.95 | – | – | 6.84 |
| Cc1nc(COc2cccc(Cl)c2-c2ccc3c(=O)n(-c4cncc5ccccc45)c(=O)[nH]c3c2)co1 [Example 87] | 6.77 | 6.69 | – | – |
| Cn1cnc(COc2cccc(Cl)c2-c2ccc3c(=O)n(-c4cncc5ccccc45)c(=O)[nH]c3c2)n1 [Example 88] | 6.63 | 6.20 | – | – |
| COc1cccc(C)c1-c1ccc2c(=O)n(-c3cncc4ccccc34)c(=O)[nH]c2c1 [Example 89] | 6.07 | 6.05 | – | – |
| Cn1cnc(COc2ccc(Cl)c(-c3ccc4c(=O)n(-c5cncc6ccccc56)c(=O)[nH]c4c3)c2)n1 [Example 90] | 6.31 | 6.05 | – | – |
| NC(=O)COc1cccc(Cl)c1-c1ccc2c(=O)n(-c3cncc4ccccc34)c(=O)[nH]c2c1 [Example 91] | 6.67 | 5.94 | – | – |

| SMILES | pIC50 [1] | pEC50 (SARS-CoV-2-NLuc; [2]) | pEC50 (SARS-CoV-2-NLuc; [3]) | pEC50 (SARS-CoV-2-NLuc; read-out: MPro EC50) |
| --- | --- | --- | --- | --- |
| COc1ccc(Cl)c(-c2ccc3c(=O)n(-c4cncc5ccccc45)c(=O)[nH]c3c2)c1 [Example 92, 7-(2-chloro-5-methoxy-phenyl)-3-(4-isoquinolyl)-1H-quinazoline-2,4-dione] | 7.47 | 7.43 | – | – |
| O=c1[nH]c2cc(-c3c(Cl)cccc3OCc3ccnnc3)ccc2c(=O)n1-c1cncc2ccccc12 [Example 93] | 7.94 | 7.02 | – | – |
| Cc1nccnc1COc1cccc(Cl)c1-c1ccc2c(=O)n(-c3cncc4ccccc34)c(=O)[nH]c2c1 [Example 94] | 6.68 | 6.57 | – | – |
| O=c1[nH]c2cc(-c3c(Cl)cccc3Cl)ccc2c(=O)n1-c1cncc2ccccc12 [Example 95, 7-(2,6-dichlorophenyl)-3-(isoquinolin-4-yl)quinazoline-2,4(1H,3H)-dione] | 5.80 | – | 6.17 | – |
| Cc1cccc(C#N)c1-c1ccc2c(=O)n(-c3cncc4ccccc34)c(=O)[nH]c2c1 [Example 96] | 6.82 | 6.53 | – | – |
| Cc1cccc(-c2ccccc2)c1-c1ccc2c(=O)n(-c3cncc4ccccc34)c(=O)[nH]c2c1 [Example 97] | 6.40 | 6.58 | – | – |
| N#Cc1cccc(Cl)c1-c1ccc2c(=O)n(-c3cncc4ccccc34)c(=O)[nH]c2c1 [Example 98] | 6.67 | 6.70 | – | – |
| O=c1[nH]c2cc(-c3c(Cl)cccc3CO)ccc2c(=O)n1-c1cncc2ccccc12 [Example 99] | 6.67 | 6.31 | – | – |
| COCc1cccc(Cl)c1-c1ccc2c(=O)n(-c3cncc4ccccc34)c(=O)[nH]c2c1 [Example 100] | 6.49 | 6.35 | – | – |
| O=c1[nH]c2cc(-c3c(Cl)cccc3-c3ccnnc3)ccc2c(=O)n1-c1cncc2ccccc12 [Example 101, 7-(2-chloro-6-(pyridazin-4-yl)phenyl)-3-(isoquinolin-4-yl)quinazoline-2,4(1H,3H)-dione] | 7.86 | – | 7.13 | – |
| Cc1cc(-c2cccc(Cl)c2-c2ccc3c(=O)n(-c4cncc5ccccc45)c(=O)[nH]c3c2)cn2ncnc12 [Example 102] | 7.80 | 7.79 | – | – |
| O=c1[nH]c2cc(-c3c(Cl)cccc3-c3ccccc3)ccc2c(=O)n1-c1cncc2ccccc12 [Example 103] | 6.41 | 7.08 | – | – |
| Cc1ccc2cncc(-n3c(=O)[nH]c4cc(-c5ccccc5Cl)sc4c3=O)c2c1 [Example 106, 6-(2-chlorophenyl)-3-(6-methylisoquinolin-4-yl)thieno[3,2-d]pyrimidine-2,4(1H,3H)-dione] | 7.63 | – | 7.14 | – |
| O=c1[nH]c2cc(-c3ccccc3Cl)sc2c(=O)n1-c1cncc2c1CCC2 [Example 107] | 7.50 | 7.14 | – | – |
| O=c1[nH]c2cc(-c3ccccc3Cl)sc2c(=O)n1-c1cncc2c1CCCC2 [Example 108] | 8.03 | 7.15 | – | – |
| Cc1ccc2cncc(-n3c(=O)[nH]c4cc(-c5ccccc5Cl)ccc4c3=O)c2c1 [Example 109] | 6.58 | 6.37 | – | – |
| O=c1[nH]c2cc(-c3c(Cl)cccc3Cl)sc2c(=O)n1-c1cncc2ccccc12 [Example 110, 6-(2,6-dichlorophenyl)-3-(isoquinolin-4-yl)thieno[3,2-d]pyrimidine-2,4(1H,3H)-dione] | 6.43 | – | 6.56 | – |
| Cc1cc(-c2cccc(Cl)c2-c2cc3[nH]c(=O)n(-c4cncc5ccccc45)c(=O)c3s2)cnn1 [Example 111, 6-(2-chloro-6-(6-methylpyridazin-4-yl)phenyl)-3-(isoquinolin-4-yl)thieno[3,2-d]pyrimidine-2,4(1H,3H)-dione] | 8.16 | – | 7.10 | – |
| O=c1[nH]c2cc(-c3c(Cl)cccc3-c3ccnnc3)sc2c(=O)n1-c1cncc2ccccc12 [Example 112] | 8.28 | 7.41 | – | – |
| Cc1cc(-c2cccc(Cl)c2-c2cc3[nH]c(=O)n(-c4cncc5ccccc45)c(=O)c3s2)cn2ncnc12 [Example 113] | 8.14 | > 8.14 | – | – |
| Cc1c(-c2cccc(Cl)c2-c2cc3[nH]c(=O)n(-c4cncc5ccccc45)c(=O)c3s2)cn2ncnc2c1C [Example 114] | 7.96 | 7.35 | – | – |
| O=c1[nH]c2cc(-c3ccccc3Cl)sc2c(=O)n1-c1cnccc1N1CCNCC1 [Example 115, 6-(2-chlorophenyl)-3-(4-(piperazin-1-yl)pyridin-3-yl)thieno[3,2-d]pyrimidine-2,4(1H,3H)-dione] | 6.28 | – | 5.82 | – |
| O=c1[nH]c2cc(-c3ccccc3Cl)ccc2c(=O)n1-c1cnccc1N1CCNCC1 [Example 116, 7-(2-chlorophenyl)-3-(4-(piperazin-1-yl)pyridin-3-yl)quinazoline-2,4(1H,3H)-dione] | 6.10 | – | 5.50 | – |
| O=c1[nH]c2cc(-c3ccccc3Cl)sc2c(=O)n1-c1cnccc1N1CCN(C2COC2)CC1 [Example 117, 6-(2-chlorophenyl)-3-(4-(4-(oxetan-3-yl)piperazin-1-yl)pyridin-3-yl)thieno[3,2-d]pyrimidine-2,4(1H,3H)-dione] | 6.81 | – | 6.20 | – |
| N#Cc1ccccc1-c1nc2[nH]c(=O)n(-c3cncc4ccccc34)c(=O)c2s1 [Example 118, 2-(6-(isoquinolin-4-yl)-5,7-dioxo-4,5,6,7-tetrahydrothiazolo[4,5-d]pyrimidin-2-yl)benzonitrile] | 6.54 | – | 4.93 | – |
